In experiment [1] the test system is Enterobacter aerogenes. In words: Log10 reduction of viable facultative anaerobic bacteria in high-TDS buffer after biocide contact. The format is cell-based. As to conditions: TDS 30,000 mg l^-1, pH 8 phosphate buffer, room temperature, versus control, ppm active per example, 8 = complete kill. How it is done: (§1) Aqueous systems inoculated with anaerobe and facultative anaerobe culture and having a total dissolved solids (TDS) concentration of 30,000 mg l^−1 were prepared and treated with treatment agents comprising: (a) a phosphonium compound and (b) a quaternary ammonium salt. The phosphonium compound (a) used was tri n-butyl n-tetradecyl phosphonium chloride (TTPC). The quaternary ammonium salt (b) used was 1-(3-chloroallyl)-3,5,7-triaza-1-azoniaadamantane chloride (CTAC).
(§2) A suspension of Desulfovibrio vulgaris plus Enterobacter aerogenes bacteria containing from 1×10^5 to 1×10^6 cells/mL was prepared in sterile pH 8 phosphate buffer containing sodium chloride to give the desired total dissolved solids (TDS) concentration. Aliquots of this suspension were dosed with the indicated concentrations of the compounds (a) and (b) with the concentrations being measured as ppm active by weight. The mixtures were allowed to stand at room temperature. At the designated contact times, each mixture was sampled to determine the total number of viable cells of both Desulfovibrio vulgaris and Enterobacter aerogenes by serial 10-fold dilution into API RP 38 media vials and anaerobic acid producing media vials, respectively. The vials were incubated at 37° C. for 72 hours. Results were recorded as log10 reduction in the viable count versus the control.
(§3) The efficacy of the treatment agents was evaluated by measuring the Log10 Reduction of the anaerobic bacterium Desulfovibrio vulgaris and the facultative anaerobic bacterium Enterobacter aerogenes after contact times of 1 hour, 4 hours, 24 hours and 48 hours as detailed in Table 1. For TTPC the stated ppm value relates to the amount of TTPC added (active). For the CTAC the stated ppm relates to the amount of CTAC added (active).

The subject of experiment [2] is Desulfovibrio vulgaris. In words: Log10 reduction of viable anaerobic bacteria in high-TDS buffer after biocide contact. Format: cell-based. To be noted: TDS 30,000 mg l^-1, pH 8 phosphate buffer, room temperature, versus control, ppm active per example, 5 = complete kill. How it is done:
as §1, §2, §3

With `CCCCCCCCCCCCCC[P+](CCCC)(CCCC)CCCC.[Cl-]` [Example 1, tri n-butyl n-tetradecyl phosphonium chloride], the “Log10 Reduction Facultative Anaerobes” value in experiment [1] (contact time 1 hour) was found to be 1. In addition, in experiment [2] (contact time 1 hour), the “Log10 Reduction Anaerobes” value was found to be 2.

As to `CCCCCCCCCCCCCC[P+](CCCC)(CCCC)CCCC.[Cl-]` [Example 2, tri n-butyl n-tetradecyl phosphonium chloride], in experiment [1] (contact time 1 hour), the “Log10 Reduction Facultative Anaerobes” value is 3. Besides, the “Log10 Reduction Anaerobes” value in experiment [2] (contact time 1 hour) is on record as 3.

Consider `ClC=CC[N+]12CN3CN(CN(C3)C1)C2.[Cl-]` [Example 4, 1-(3-chloroallyl)-3,5,7-triaza-1-azoniaadamantane chloride], for which the “Log10 Reduction Facultative Anaerobes” value in experiment [1] (contact time 1 hour) stood at 0. Also, in experiment [2] (contact time 1 hour), the “Log10 Reduction Anaerobes” value came out at 0.

As for `CCCCCCCCCCCCCC[P+](CCCC)(CCCC)CCCC.[Cl-]` [Example 9, tri n-butyl n-tetradecyl phosphonium chloride], in experiment [1] (contact time 4 hours), the “Log10 Reduction Facultative Anaerobes” value turned out to be 2. Besides, the “Log10 Reduction Anaerobes” value in experiment [2] (contact time 4 hours) came to 5.

Turning to `CCCCCCCCCCCCCC[P+](CCCC)(CCCC)CCCC.[Cl-]` [Example 10, tri n-butyl n-tetradecyl phosphonium chloride], in experiment [1] (contact time 4 hours), the “Log10 Reduction Facultative Anaerobes” value amounted to 8. Also, the “Log10 Reduction Anaerobes” value in experiment [2] (contact time 4 hours) was determined as 5.

With `ClC=CC[N+]12CN3CN(CN(C3)C1)C2.[Cl-]` [Example 11, 1-(3-chloroallyl)-3,5,7-triaza-1-azoniaadamantane chloride], in experiment [1] (contact time 4 hours), the “Log10 Reduction Facultative Anaerobes” value is recorded as 0. The “Log10 Reduction Anaerobes” value in experiment [2] (contact time 4 hours) is on record as 0.

As for `ClC=CC[N+]12CN3CN(CN(C3)C1)C2.[Cl-]` [Example 12, 1-(3-chloroallyl)-3,5,7-triaza-1-azoniaadamantane chloride], the “Log10 Reduction Facultative Anaerobes” value in experiment [1] (contact time 4 hours) was determined as 1. The “Log10 Reduction Anaerobes” value in experiment [2] (contact time 4 hours) is recorded as 0.

Consider `CCCCCCCCCCCCCC[P+](CCCC)(CCCC)CCCC.[Cl-]` [Example 17, tri n-butyl n-tetradecyl phosphonium chloride], for which the “Log10 Reduction Facultative Anaerobes” value in experiment [1] (contact time 24 hours) was 4. The “Log10 Reduction Anaerobes” value in experiment [2] (contact time 24 hours) was determined as 5.

Turning to `CCCCCCCCCCCCCC[P+](CCCC)(CCCC)CCCC.[Cl-]` [Example 18, tri n-butyl n-tetradecyl phosphonium chloride], in experiment [1] (contact time 24 hours), the “Log10 Reduction Facultative Anaerobes” value is on record as 7. For the same compound, the “Log10 Reduction Anaerobes” value in experiment [2] (contact time 24 hours) came out at 5.

As to `ClC=CC[N+]12CN3CN(CN(C3)C1)C2.[Cl-]` [Example 19, 1-(3-chloroallyl)-3,5,7-triaza-1-azoniaadamantane chloride], the “Log10 Reduction Facultative Anaerobes” value in experiment [1] (contact time 24 hours) is on record as 0. Further, the “Log10 Reduction Anaerobes” value in experiment [2] (contact time 24 hours) worked out at 1.

On to `ClC=CC[N+]12CN3CN(CN(C3)C1)C2.[Cl-]` [Example 20, 1-(3-chloroallyl)-3,5,7-triaza-1-azoniaadamantane chloride], for which the “Log10 Reduction Facultative Anaerobes” value in experiment [1] (contact time 24 hours) stood at 2. Also, the “Log10 Reduction Anaerobes” value in experiment [2] (contact time 24 hours) was determined as 3.

On to `CCCCCCCCCCCCCC[P+](CCCC)(CCCC)CCCC.[Cl-]` [Example 25, tri n-butyl n-tetradecyl phosphonium chloride], for which, in experiment [1] (contact time 48 hours), the “Log10 Reduction Facultative Anaerobes” value amounted to 6. Also, the “Log10 Reduction Anaerobes” value in experiment [2] (contact time 48 hours) is recorded as 5.

With `ClC=CC[N+]12CN3CN(CN(C3)C1)C2.[Cl-]` [Example 27, 1-(3-chloroallyl)-3,5,7-triaza-1-azoniaadamantane chloride], in experiment [1] (contact time 48 hours), the “Log10 Reduction Facultative Anaerobes” value is listed as 2. Also, the “Log10 Reduction Anaerobes” value in experiment [2] (contact time 48 hours) was determined as 5.

In the case of `ClC=CC[N+]12CN3CN(CN(C3)C1)C2.[Cl-]` [Example 28, 1-(3-chloroallyl)-3,5,7-triaza-1-azoniaadamantane chloride], the “Log10 Reduction Facultative Anaerobes” value in experiment [1] (contact time 48 hours) is on record as 3. Also, in experiment [2] (contact time 48 hours), the “Log10 Reduction Anaerobes” value was 5.

For the origin of these results see US20170094976A1, “TREATMENT OF WATER” (BWA WATER ADDITIVES UK LIMITED, priority 2015, published 2017).
